This is an account of results in ChEMBL document CHEMBL1201862, “PubChem BioAssay data set” (2004).

A word on the IC50: it is the concentration that inhibits the measured activity by half. By AC50 is commonly meant the midpoint of the concentration-response curve, whichever way the signal moves. Usually IC90 stands for the concentration at which the effect reaches the 90% level.

Active and inactive are the calls of the source.

The nature of assay [1]: Luminescence-based cell-based high throughput dose response assay to identify activators of the DAF-12 from the parasite S. stercoralis (ssDAF-12). The class given is functional.
The target in assay [2] is T1, Oxysterols receptor LXR-beta (Homo sapiens, UniProt P55055).
T1 sequence (P55055 whole entry): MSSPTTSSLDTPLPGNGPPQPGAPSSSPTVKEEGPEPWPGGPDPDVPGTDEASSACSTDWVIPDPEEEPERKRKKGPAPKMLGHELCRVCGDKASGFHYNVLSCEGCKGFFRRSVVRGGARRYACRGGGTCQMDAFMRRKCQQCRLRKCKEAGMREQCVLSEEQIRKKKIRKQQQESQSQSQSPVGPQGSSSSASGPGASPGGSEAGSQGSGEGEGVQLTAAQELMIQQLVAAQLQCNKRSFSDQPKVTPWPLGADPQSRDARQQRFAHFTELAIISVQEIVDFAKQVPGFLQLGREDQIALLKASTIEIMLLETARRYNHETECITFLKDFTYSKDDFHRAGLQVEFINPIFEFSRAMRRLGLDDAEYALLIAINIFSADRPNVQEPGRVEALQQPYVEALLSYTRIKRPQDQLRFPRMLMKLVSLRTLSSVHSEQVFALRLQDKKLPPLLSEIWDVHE
Put plainly: LXR agonists, Gal4 luciferase reporter, dose response, counter-screen for ssDAF-12 agonist project, cell-based, luminescence, HEK293, S. stercoralis campaign (AID 720737). Conditions: read-out: IC50 (the source's name). The class given is functional. (Reporter assays use an easily measured gene product as a stand-in for the process of interest.)

For assay [3], the target named is T2, Bcl-2-related protein A1 (Mus musculus, UniProt Q07440).
T2 sequence (Q07440 whole entry): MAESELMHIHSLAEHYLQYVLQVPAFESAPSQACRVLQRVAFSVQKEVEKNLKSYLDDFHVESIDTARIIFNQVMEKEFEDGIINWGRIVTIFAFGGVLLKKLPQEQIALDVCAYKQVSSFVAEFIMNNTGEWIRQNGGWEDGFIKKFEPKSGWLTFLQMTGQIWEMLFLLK
Kind of assay: small-molecule antagonists of Bfl-1/BH3 interaction – biochemical, TR-FRET, mouse Bfl-1, confirmation (AID 621).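 Note: TR-FRET binding of GST-Bfl-1 to FITC-labelled Bid peptide via terbium antibody.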 Background: In TR-FRET formats the signal depends on donor and acceptor labels being close together.

Assay [4] deals with T2, Bcl-2-related protein A1. Kind of assay: Bfl-1 binding inhibitors, SAR follow-up, biochemical, fluorescence polarization (AID 1070). (In general: In fluorescence polarisation assays a small probe gives low polarisation when free and higher when bound to something large.)
Another assay addresses T3, Caspase-6 (Homo sapiens, UniProt P55212).
T3 sequence (P55212 whole entry): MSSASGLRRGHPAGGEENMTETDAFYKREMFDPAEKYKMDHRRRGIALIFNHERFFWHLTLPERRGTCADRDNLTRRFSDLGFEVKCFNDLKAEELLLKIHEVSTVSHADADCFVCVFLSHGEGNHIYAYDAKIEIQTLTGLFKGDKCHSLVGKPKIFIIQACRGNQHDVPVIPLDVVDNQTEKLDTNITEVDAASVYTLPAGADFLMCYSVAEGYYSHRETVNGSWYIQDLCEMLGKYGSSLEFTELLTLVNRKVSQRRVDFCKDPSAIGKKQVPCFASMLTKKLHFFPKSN
Put plainly: inhibition of CASP6 peptide cleavage – biochemical, VEID-R110 fluorescence, cherry-pick, dose response (AID 720632).

Another assay addresses Cytochrome P450 2C9 (Homo sapiens, UniProt P11712).
In assay [5] the target is T4, Histone-lysine N-methyltransferase NSD2 (Homo sapiens, UniProt O96028).
T4 sequence (O96028 whole entry): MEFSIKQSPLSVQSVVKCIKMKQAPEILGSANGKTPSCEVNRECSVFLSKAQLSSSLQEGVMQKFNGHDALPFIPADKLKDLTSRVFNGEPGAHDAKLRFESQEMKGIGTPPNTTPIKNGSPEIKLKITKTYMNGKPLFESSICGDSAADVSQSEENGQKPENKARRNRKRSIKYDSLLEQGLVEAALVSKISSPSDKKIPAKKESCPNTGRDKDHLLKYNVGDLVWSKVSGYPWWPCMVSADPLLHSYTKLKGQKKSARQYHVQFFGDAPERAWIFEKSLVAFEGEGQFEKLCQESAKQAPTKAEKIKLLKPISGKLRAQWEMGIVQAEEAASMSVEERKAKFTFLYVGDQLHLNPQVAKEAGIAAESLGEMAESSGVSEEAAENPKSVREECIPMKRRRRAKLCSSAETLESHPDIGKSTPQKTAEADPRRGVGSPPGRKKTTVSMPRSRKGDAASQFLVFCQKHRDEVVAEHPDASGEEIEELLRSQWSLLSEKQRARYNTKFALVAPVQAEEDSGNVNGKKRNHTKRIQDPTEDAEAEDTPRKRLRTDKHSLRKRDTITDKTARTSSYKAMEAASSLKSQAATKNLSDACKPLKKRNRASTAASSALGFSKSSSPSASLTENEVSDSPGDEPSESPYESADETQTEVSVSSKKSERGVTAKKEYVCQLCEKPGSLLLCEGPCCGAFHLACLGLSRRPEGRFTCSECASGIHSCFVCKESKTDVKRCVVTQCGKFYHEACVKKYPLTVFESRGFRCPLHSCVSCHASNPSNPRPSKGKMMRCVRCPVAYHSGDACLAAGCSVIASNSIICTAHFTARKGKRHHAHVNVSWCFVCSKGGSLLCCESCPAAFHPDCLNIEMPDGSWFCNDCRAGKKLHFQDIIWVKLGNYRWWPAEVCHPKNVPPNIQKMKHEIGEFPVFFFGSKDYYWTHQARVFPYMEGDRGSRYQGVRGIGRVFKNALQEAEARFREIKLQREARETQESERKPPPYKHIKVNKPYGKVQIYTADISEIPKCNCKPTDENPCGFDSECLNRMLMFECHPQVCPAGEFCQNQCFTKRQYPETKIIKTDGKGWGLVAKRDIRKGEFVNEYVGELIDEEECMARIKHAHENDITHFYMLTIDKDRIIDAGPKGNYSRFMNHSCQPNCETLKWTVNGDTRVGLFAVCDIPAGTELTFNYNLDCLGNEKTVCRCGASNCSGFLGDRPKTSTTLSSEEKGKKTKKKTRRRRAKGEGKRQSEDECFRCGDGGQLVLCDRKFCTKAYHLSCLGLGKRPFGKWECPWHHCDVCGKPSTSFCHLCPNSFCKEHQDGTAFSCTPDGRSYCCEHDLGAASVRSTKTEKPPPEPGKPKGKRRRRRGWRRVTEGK
The class given is biochemical.

In another assay the target is Cytochrome P450 2C19 (Homo sapiens, UniProt P33261). Put plainly: Cytochrome panel assay with activity outcomes. Panel member name: p450-cyp2c19 Compounds with AC50 equal or less than 10 uM are considered active. Conditions: read-out: AC50. The class given is functional.
Chain of Cytochrome P450 2C19 (P33261 whole entry): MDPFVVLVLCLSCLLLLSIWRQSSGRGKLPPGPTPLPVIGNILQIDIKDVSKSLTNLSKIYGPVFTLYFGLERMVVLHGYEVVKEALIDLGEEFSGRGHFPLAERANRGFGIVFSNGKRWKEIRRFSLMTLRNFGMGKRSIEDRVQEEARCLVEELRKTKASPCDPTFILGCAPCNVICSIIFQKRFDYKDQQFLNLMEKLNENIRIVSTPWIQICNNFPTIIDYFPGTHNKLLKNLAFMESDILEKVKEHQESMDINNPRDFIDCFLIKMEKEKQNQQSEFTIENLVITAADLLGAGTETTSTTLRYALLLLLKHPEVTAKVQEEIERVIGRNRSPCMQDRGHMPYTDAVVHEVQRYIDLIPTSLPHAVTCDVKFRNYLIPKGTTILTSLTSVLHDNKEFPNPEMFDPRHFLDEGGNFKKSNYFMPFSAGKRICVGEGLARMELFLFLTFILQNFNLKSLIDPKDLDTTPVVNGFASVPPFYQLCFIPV
In assay [6] the target is Peroxisome proliferator-activated receptor gamma/Nuclear receptor corepressor 2 (Homo sapiens, UniProt P37231+Q9Y618). Put plainly: Counterscreen for NR2E3 inverse agonists: TR-FRET-based biochemical high throughput dose response assay to identify inverse agonists of the interaction between peroxisome proliferator-activated receptor gamma (PPARg) and nuclear receptor co-repressor 2 (NCOR2). The class given is functional.
Chain of Peroxisome proliferator-activated receptor gamma/Nuclear receptor corepressor 2 (P37231 whole entry): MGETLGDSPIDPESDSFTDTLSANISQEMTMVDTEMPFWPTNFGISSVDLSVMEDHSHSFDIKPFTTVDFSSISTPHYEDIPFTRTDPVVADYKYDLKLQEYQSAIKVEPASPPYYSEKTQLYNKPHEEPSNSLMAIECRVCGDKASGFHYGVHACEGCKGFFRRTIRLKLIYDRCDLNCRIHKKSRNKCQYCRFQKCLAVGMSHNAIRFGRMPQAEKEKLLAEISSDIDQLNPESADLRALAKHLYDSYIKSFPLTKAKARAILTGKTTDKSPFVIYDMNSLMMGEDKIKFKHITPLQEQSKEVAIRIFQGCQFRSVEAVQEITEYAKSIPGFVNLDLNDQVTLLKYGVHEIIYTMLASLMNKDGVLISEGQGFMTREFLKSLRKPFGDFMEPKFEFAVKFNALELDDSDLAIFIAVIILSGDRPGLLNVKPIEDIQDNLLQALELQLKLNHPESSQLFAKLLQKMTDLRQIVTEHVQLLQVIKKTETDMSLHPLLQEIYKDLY
Chain of Peroxisome proliferator-activated receptor gamma/Nuclear receptor corepressor 2 (Q9Y618 whole entry): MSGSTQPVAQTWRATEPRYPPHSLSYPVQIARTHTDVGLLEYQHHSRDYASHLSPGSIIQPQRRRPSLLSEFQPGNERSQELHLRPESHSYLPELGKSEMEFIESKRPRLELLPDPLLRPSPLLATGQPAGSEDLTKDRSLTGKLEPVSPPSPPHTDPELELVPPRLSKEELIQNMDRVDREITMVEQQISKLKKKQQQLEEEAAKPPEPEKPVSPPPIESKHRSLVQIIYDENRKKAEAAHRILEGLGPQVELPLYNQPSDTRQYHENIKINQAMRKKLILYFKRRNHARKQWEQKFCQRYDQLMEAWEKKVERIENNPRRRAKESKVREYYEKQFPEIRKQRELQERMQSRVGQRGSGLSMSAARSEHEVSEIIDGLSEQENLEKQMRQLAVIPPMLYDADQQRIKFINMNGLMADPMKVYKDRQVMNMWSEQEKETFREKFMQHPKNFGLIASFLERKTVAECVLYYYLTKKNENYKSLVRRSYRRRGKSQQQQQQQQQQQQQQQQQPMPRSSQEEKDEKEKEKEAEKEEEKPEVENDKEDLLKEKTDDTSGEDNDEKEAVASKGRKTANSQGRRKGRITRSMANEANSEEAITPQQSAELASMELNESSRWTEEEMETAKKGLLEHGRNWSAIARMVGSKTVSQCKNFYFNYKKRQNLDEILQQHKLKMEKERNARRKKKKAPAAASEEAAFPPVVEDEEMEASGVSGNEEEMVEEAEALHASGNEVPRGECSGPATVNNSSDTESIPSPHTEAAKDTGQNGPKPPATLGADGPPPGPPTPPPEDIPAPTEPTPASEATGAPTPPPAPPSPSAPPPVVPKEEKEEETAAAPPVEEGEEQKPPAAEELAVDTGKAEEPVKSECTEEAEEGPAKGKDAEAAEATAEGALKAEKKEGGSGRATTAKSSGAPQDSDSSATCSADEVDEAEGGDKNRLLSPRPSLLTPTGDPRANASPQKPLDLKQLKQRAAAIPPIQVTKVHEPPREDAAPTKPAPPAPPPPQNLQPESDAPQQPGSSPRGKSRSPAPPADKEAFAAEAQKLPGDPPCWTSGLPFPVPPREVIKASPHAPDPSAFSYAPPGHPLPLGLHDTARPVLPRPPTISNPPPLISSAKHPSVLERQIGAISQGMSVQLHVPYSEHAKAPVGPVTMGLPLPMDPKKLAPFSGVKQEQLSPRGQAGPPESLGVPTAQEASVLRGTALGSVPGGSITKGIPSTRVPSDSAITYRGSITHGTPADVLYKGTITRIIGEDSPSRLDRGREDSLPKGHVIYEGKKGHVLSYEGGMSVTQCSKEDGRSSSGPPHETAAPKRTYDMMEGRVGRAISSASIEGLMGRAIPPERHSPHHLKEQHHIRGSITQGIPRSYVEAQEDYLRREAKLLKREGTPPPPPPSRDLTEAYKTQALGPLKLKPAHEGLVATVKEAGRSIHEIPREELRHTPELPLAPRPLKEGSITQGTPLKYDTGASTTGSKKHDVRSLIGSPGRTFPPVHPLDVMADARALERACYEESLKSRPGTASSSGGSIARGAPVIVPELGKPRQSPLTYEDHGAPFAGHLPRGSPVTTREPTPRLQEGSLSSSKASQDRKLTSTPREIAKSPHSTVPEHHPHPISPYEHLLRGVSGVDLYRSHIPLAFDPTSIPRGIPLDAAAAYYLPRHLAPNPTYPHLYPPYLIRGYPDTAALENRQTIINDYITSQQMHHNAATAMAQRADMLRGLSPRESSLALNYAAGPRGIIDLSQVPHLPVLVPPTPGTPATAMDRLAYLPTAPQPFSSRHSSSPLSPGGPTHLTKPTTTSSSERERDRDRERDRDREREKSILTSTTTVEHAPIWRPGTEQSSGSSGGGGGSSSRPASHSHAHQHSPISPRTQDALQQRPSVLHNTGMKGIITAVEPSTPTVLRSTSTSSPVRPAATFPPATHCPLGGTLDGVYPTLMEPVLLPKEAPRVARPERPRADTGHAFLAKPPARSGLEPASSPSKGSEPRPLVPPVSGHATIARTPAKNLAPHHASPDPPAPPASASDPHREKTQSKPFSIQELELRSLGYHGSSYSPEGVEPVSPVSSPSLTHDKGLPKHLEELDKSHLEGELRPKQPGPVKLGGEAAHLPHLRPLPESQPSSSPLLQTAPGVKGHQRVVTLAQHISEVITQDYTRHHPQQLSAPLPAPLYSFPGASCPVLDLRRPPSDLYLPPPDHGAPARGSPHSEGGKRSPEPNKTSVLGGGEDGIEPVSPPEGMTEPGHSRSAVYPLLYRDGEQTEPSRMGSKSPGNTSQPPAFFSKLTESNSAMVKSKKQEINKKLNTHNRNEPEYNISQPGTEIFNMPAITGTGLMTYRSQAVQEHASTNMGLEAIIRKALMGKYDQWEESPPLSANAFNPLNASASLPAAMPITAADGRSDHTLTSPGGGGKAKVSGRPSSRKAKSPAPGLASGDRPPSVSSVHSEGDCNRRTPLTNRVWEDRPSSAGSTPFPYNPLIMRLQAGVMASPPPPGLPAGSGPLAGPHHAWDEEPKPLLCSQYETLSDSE

For assay [7], the target named is Photoreceptor-specific nuclear receptor (Homo sapiens, UniProt Q9Y5X4). Kind of assay: ligands suppressing NR2E3 nuclear receptor activity – biochemical, TR-FRET, dose response (AID 463256). The class given is functional.
Chain of Photoreceptor-specific nuclear receptor (Q9Y5X4 whole entry): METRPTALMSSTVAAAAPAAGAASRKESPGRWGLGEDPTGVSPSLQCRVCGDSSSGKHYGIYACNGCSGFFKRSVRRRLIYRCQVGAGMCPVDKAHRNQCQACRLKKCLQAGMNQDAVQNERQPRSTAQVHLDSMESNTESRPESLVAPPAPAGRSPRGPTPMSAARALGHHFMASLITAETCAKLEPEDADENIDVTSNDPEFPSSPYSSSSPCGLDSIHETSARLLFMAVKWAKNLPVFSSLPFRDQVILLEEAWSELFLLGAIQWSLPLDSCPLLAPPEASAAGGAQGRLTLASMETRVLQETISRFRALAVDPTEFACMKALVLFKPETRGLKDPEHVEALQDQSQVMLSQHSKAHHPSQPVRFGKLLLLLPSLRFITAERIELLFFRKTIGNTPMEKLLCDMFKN
Assay [8] in a line: IGROV1 cell killing – plate reader, dry powder samples, PAX8 inhibitor project, dose response (AID 743043). The class given is functional, cell-based. Conditions: IGROV-1.
The nature of assay [9]: P. falciparum Dd2 growth inhibitors, dose response, SYBR Green, cherry-picked samples (AID 1159567). The format is functional, cell-based.
A short description of assay [10]: toxicity to human hepatoma HepG2 cells – cell-based, cherry-picked samples, cytotoxicity control, dose response (AID 1159577). The class given is functional.
In a further assay the target is Paired box protein Pax-8 (Homo sapiens, UniProt Q06710). Kind of assay: PAX8 transcriptional activity inhibition in RMG-I – RMG-I cells, luciferase, cherry-pick, dose response (AID 687027).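 Note: luciferase reporter driven by Pax8 target thyroperoxidase promoter measured by SteadyGlo luminescence.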 The format is functional, cell-based.
Chain of Paired box protein Pax-8 (Q06710 whole entry): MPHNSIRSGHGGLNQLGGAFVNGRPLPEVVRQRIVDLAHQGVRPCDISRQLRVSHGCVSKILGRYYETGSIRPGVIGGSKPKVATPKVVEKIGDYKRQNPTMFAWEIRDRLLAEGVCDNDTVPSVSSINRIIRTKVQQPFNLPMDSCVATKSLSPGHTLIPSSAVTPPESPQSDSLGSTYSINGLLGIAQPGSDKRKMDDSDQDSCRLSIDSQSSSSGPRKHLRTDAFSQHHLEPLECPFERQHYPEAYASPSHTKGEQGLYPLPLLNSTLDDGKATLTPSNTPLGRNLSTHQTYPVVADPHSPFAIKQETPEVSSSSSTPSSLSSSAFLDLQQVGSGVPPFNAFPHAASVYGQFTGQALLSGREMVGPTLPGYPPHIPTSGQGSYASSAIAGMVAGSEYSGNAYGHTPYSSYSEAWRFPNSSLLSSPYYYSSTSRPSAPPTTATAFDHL
The nature of assay [11]: inhibitors of non-replicating M. tuberculosis, dose response, luciferase, dry powder (AID 651619). The format is functional. Conditions: Mycobacterium tuberculosis.
A short description of assay [12]: growth inhibition of replicating M. tuberculosis, dose response, counter-screen, dry powder, IC90 (AID 651617). The format is functional. Conditions: Mycobacterium tuberculosis.
The nature of assay [13]: inhibitors of non-replicating M. tuberculosis, dose response, luciferase, dry powder (AID 651620). The format is functional. The note with it: Mycobacterium tuberculosis.
Assay [14] can be described thus: growth inhibition of PfATP4-mutant resistant parasites – NITD609-resistant line, SYBR Green, dry powder, dose response (AID 1159571).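 Note: parasites synchronized at ring stage by sorbitol before testing.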 The format is functional, cell-based.
A short description of assay [15]: Dd2 malaria parasite growth inhibition potency – SYBR Green, dry powder samples, dose response (AID 1159566).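 Note: potency for growth inhibition with lower SYBR green DNA signal.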 The format is functional, cell-based.
Assay [16] in a line: growth inhibition of yeast DHODH-expressing 3D7 parasites – SYBR Green, dry powder samples, dose response (AID 1159570).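 Note: parasite growth measured after 72 hours of compound exposure.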 The format is functional, cell-based.

Chain of Cytochrome P450 2C9 (P11712 whole entry): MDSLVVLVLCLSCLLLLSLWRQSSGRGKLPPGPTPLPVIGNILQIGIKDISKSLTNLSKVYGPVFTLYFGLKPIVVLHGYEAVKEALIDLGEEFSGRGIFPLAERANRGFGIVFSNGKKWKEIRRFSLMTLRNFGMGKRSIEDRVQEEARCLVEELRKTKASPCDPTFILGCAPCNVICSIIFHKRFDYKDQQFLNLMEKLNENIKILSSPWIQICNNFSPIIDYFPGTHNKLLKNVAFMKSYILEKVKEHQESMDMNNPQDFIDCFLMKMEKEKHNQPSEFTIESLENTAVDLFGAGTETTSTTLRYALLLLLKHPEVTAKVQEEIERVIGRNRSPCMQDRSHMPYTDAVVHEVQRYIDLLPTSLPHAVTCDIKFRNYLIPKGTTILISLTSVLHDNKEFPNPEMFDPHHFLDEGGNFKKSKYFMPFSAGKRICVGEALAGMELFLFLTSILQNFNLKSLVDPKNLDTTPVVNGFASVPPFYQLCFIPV

As for `Fc1ccc(-c2cnn3c(-c4cccs4)ccnc23)cc1`, the IC50 in assay [1] was > 67.5 µM (inactive). For the same molecule, the EC50 in assay [2] is > 67.5 µM (inactive).

On to `COc1ccc2nc(O)c(-c3nnn(-c4ccc(Cl)nc4)n3)cc2c1`, for which the half-maximal inhibitory concentration (IC50) against Bcl-2-related protein A1 [3] and at Bcl-2-related protein A1 [4] was > 100 µM (not active) throughout.

On to `Nc1cc(S(=O)(=O)O)cc2ccc(S(=O)(=O)O)cc12`, for which the AC50 is 45.1 µM (active) on Caspase-6, 7.94 µM (inconclusive) on Cytochrome P450 2C9, > 20 µM (inactive) in [5] and 7.94 µM (inconclusive) on Cytochrome P450 2C19.

Consider `Cc1ccc(-n2nnc(-c3cccnc3)n2)cc1`, for which the half-maximal inhibitory concentration (IC50) at Bcl-2-related protein A1 [3] and at Bcl-2-related protein A1 [4] was > 100 µM (not active) throughout.

In the case of `O=C(O)c1ccccc1SCC(=O)N1CCc2ccccc21`, the IC50 in assay [1] was > 67.5 µM (inactive). For the same molecule, in assay [2], the EC50 was > 67.5 µM (inactive).

In the case of `O=C(CSc1nnc(-c2cccs2)n1-c1ccccc1)Nc1ccccc1`, the concentration for half-maximal inhibition (IC50) in assay [6] was 11.8 µM (not active); in assay [7] it was 5.52 µM (active).

Take `Fc1ccc(-n2nnc(-c3cc4ccccc4nc3Cl)n2)cc1`: the IC50 against Bcl-2-related protein A1 [3] and on Bcl-2-related protein A1 [4] was > 100 µM (not active) in each case.

On to `C[C@H](CO)N1C[C@H](C)[C@@H](CN(C)Cc2ccc(Cl)c(Cl)c2)Oc2ccc(NC(=O)Nc3ccc(C(F)(F)F)cc3)cc2CC1=O`, for which the AC50 in [8] is 54.3 µM (active); in [9] it was 2.62 µM (active); in [10] it was 11.8 µM (active); at Paired box protein Pax-8, 6.35 µM (active).

Consider `Fc1ccc(CSc2nnc(-c3ccccc3)o2)cc1`, for which the IC90 in assay [11] is 4 µM (active); in assay [12], 250 µM (active); in assay [13] it was 4 µM (active).

On to `C/C=C/c1ccc2c(c1)[C@H]1[C@H](CCN1C(=O)c1ccc(F)cc1)[C@H](CO)N2`, for which the half-maximal activity concentration (AC50) is 2 µM (active) in assay [14], 2.01 µM (active) in assay [15], 1.96 µM (active) in [16] and 2.79 µM (active) in assay [9].

`CCN(C[C@@H]1N[C@@H](CO)[C@H]1c1ccc(-c2ccc(F)cc2)cc1)C(=O)CN(C)C`: the AC50 in assay [9] was 2.05 µM (active); in assay [10], 8.36 µM (active).
